According to ChEMBL document CHEMBL1201862, “PubChem BioAssay data set” (2004):
pIC50: −log10 of the molar value. The source made the active and inactive calls.

What was measured:
[1] = NIH-3T3 fibroblast cytotoxicity, dose response, cytotoxicity control, cell-based, fluorescence, Alamar Blue, secondary assay (AID 2327); assay type: functional;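 also: NIH-3T3 mouse fibroblasts cultured with fluconazole at 8 µg/mL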
[2] = test system: HEK293; experiment: NOD1 signaling inhibitors, primary screen, cell-based, luminescence, uHTS (AID 1578); assay type: functional; details: Homo sapiens
[3] = test system: BJ; experiment: cytotoxicity toward BJ-TERT fibroblasts, dose response, cell-based, RAS-independent, luminescence (AID 1933); assay type: functional; details: Homo sapiens
[4] = test system: HEK293; experiment: cells; assay type: functional, cell-based; details: Homo sapiens
[5] = test system: BJ; experiment: cells; assay type: functional, cell-based; details: Homo sapiens
[6] = C. albicans growth with fluconazole, confirmation, fluorescence, retest (AID 2467); assay type: functional, cell-based
[7] = test system: HEK293; experiment: cells; assay type: functional, cell-based; details: Homo sapiens; remark: listed apart in the source
[8] = target: Nucleotide-binding oligomerization domain-containing protein 2 (Homo sapiens, UniProt Q9HC29); experiment: NOD2 signaling inhibitors, cell-based, luminescence, uHTS, HEK293 (AID 1566); assay type: functional
[9] = test system: HEK293; experiment: NOD2 signaling inhibitors in MDP-stimulated cells, cell-based, uHTS, luminescence (AID 2001); assay type: functional; details: Homo sapiens
[10] = inhibitors of intracellular T. cruzi replication, confirmation, NIH3T3 host cells, beta-gal luminescence (AID 2044); assay type: functional, cell-based;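 also: intracellular parasites grown in NIH/3T3 mouse fibroblasts as host cells; luminescent beta-galactosidase reporter signal from transgenic T. cruzi replicating inside host cells; inhibitors lower the luminescence signal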
[11] = test system: HEK293; experiment: cells; assay type: functional, cell-based; details: Homo sapiens; remark: listed apart in the source
[12] = cytotoxicity toward NIH3T3 fibroblasts, dose response, counter-screen, cell-based, ATP luminescence, mouse fibroblasts (AID 2010); assay type: functional;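 also: cells exposed to compound for about 90 hours before reading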
[13] = test system: BJ; experiment: cytotoxicity toward BJ-TERT-LT-ST fibroblasts, dose response, cell-based, RAS-independent, luminescence (AID 1935); assay type: functional; details: Homo sapiens;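 also: BJ fibroblasts immortalized with TERT plus LT and ST oncogenes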
[14] = cytotoxicity toward DRD oncogenic fibroblasts, dose response, cell-based, non-viral oncogenic, luminescence (AID 1934); assay type: functional; details: Homo sapiens
[15] = target: G-protein coupled receptor 55 (Homo sapiens, UniProt Q9Y2T6); experiment: GPR55 agonists via beta-arrestin recruitment, primary screen, imaging, U2OS cells, beta-arrestin-GFP redistribution (AID 1961); assay type: functional
[16] = cytotoxicity in HEK-293T cells, dose response, cytotoxicity control for TCR NF-kB inhibitor project, luminescence, T-cell screen hits (AID 489026); assay type: functional, cell-based;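 also: cells exposed to compound about 14 hours before the viability readout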
[17] = target: Nonstructural protein 1 (Influenza A virus, UniProt Q194T2); assay type: functional, Influenza A virus (A/California/07/2009(H1N1))
[18] = target: Protein S100-A4 (Homo sapiens, UniProt P26447); experiment: S100A4-myosin IIA binding inhibitor potency, dose response, biochemical, fluorescence polarization, cherry-picked hits (AID 687001); assay type: functional
[19] = target: T1, Histone-lysine N-methyltransferase NSD2 (Homo sapiens, UniProt O96028); assay type: biochemical
T1 sequence (O96028 whole entry): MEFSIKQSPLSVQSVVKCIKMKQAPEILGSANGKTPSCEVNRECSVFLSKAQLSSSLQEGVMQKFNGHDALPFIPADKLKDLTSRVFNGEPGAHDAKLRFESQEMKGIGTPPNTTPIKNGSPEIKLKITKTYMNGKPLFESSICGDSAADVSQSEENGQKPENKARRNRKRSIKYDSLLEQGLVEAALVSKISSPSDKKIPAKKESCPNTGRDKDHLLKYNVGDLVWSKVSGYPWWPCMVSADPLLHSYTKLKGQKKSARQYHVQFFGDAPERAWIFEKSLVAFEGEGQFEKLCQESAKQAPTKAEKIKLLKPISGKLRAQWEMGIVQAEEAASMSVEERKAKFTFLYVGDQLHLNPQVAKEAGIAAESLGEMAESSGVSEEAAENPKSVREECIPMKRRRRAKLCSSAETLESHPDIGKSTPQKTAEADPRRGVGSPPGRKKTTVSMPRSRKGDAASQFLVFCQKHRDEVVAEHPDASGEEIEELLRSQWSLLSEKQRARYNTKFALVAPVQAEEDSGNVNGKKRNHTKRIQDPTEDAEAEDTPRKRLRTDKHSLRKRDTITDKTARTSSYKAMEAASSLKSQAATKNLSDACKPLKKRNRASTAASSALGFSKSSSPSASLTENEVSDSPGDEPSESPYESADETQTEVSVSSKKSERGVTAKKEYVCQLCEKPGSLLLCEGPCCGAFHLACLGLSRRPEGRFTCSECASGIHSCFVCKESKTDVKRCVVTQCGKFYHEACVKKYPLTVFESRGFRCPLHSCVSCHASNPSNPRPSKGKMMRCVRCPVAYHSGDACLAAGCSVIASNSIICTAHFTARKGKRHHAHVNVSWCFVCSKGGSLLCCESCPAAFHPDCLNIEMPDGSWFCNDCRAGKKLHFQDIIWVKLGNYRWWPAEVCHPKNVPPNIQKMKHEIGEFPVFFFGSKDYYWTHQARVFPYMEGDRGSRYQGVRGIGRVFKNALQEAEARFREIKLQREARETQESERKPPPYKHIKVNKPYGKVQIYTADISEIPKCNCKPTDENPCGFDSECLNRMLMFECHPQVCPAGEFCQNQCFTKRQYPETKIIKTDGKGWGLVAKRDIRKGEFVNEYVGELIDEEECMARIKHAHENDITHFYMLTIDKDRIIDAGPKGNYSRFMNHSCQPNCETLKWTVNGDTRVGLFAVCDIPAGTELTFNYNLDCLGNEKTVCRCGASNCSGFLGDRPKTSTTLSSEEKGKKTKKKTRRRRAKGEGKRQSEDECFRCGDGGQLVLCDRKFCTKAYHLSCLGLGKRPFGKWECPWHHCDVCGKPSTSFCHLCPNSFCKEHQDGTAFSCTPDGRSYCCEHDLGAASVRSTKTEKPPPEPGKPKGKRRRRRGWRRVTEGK

[20] = cells
[21] = test system: Streptococcus sp. 'group A'; experiment: growth inhibition of control SK(-) GAS strain, dose response, counter-screen for streptokinase expression inhibitor project, luminescence, kanamycin, BacTiterGlo, confirmation (AID 1900); assay type: functional, organism-based
[22] = cells; assay type: functional, cell-based
[23] = Luminescence Cell-Based Dose Response HTS to Identify Inhibitors of 5'UTR Stem-Loop Driven Prion Protein mRNA Translation in H4 Neuroglioblastoma Cells. [Related pubchem assays: 1827 (Project Summary), 1813 (Primary HTS)]; assay type: functional
[24] = inhibitors of SNCA 5'UTR-driven reporter translation, confirmation, H4 neuroglioma cells, luminescence (AID 1988); assay type: functional, cell-based
[25] = target: T2, Streptokinase A (Streptococcus pyogenes serotype M1, UniProt P10520); experiment: S. pyogenes streptokinase expression inhibitors, potency, dose response, plasminogen activation absorbance, OD405 (AID 1914); assay type: functional, Streptococcus pyogenes M1 GAS;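 also: secreted streptokinase activity via plasminogen activation per viability signal from cell pellet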
T2 sequence (P10520 whole entry): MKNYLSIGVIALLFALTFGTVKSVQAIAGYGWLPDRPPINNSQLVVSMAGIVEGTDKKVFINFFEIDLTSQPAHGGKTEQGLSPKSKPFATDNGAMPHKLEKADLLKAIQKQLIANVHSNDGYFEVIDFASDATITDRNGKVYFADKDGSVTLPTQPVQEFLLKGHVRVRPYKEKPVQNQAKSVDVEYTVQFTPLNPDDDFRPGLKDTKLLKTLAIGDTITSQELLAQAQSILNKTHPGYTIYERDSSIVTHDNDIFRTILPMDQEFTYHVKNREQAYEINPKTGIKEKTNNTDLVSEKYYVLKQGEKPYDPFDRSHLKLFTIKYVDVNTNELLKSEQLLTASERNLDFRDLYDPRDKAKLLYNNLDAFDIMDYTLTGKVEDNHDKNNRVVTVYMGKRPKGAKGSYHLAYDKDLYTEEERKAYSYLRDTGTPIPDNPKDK

[26] = cells; assay type: functional, cell-based; remark: listed apart in the source
[27] = target: T3, Kappa-type opioid receptor (Homo sapiens, UniProt P41145); assay type: functional
[28] = target: Beta-galactosidase (Escherichia coli, UniProt Q8VNN2); assay type: functional
[29] = target: Ephrin type-A receptor 4 (Mus musculus, UniProt Q03137); experiment: inhibitors of EphA4 binding to KYL peptide, primary screen, biochemical, colorimetric, mouse EphA4 (AID 689); assay type: functional
[30] = target: T3, Kappa-type opioid receptor; assay type: functional; remark: listed apart in the source
[31] = test system: Streptococcus; experiment: Group A Streptococcus viability loss, dose response, counter-screen for streptokinase expression inhibitor project, luminescence, BacTiterGlo (AID 1915); assay type: functional, organism-based;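 also: potency for reduction of bacterial viability or growth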
[32] = target: Exodeoxyribonuclease V (Escherichia coli (strain K12), UniProt P04993+P07648+P08394); experiment: E. coli RecBCD inhibitors, dose response, counter-screen for AddAB inhibitor project, absorbance, V66 E. coli, mutant T4 phage (AID 492957); assay type: functional, cell-based, Escherichia coli str. K-12 substr. MG1655
[33] = target: T4, Heat shock factor protein 1 (Mus musculus, UniProt P38532); experiment: HSF1 potentiators in luciferase reporter cells, confirmation, cell-based, NIH3T3, luminescence, dose retest (AID 435004); assay type: functional;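 also: stress induced by proteasome inhibitor MG132 added 30 min after compound; luciferase reporter driven by HSF1 response element in NIH3T3 cells; actives raise luminescence as potentiators of the MG132 stress response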
T4 sequence (P38532 whole entry): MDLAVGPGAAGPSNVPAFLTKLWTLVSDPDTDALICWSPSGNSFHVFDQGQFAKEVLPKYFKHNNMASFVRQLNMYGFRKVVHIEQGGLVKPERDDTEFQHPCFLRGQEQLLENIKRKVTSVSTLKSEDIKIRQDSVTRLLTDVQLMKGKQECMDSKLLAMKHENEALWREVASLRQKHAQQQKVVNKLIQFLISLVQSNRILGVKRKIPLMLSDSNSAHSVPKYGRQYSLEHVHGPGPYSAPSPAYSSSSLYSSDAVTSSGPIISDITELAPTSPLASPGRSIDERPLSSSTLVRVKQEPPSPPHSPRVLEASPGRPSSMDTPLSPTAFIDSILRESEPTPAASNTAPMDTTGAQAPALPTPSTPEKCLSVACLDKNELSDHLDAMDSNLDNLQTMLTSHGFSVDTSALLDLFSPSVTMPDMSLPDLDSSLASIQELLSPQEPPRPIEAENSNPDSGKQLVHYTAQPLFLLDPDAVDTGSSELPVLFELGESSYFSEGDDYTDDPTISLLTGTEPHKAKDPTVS

[34] = Counterscreen for AddAB inhibitors: absorbance-based bacterial cell-based high throughput dose response assay for inhibitors of bacterial viability. [Related pubchem assays (depositor defined):AID435030, AID449728, AID449731, AID488942, AID488955, AID488956]; assay type: functional
[35] = test system: BJ; experiment: cytotoxicity toward Ras-transformed BJeLR fibroblasts, dose response, cell-based, alamar blue fluorescence, cherrypicked samples (AID 2631); assay type: functional; details: Homo sapiens;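 also: confirmatory dose-response assay in RAS-dependent BJ fibroblasts engineered with TERT, LT and ST, with cytotoxicity read by fluorescence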
[36] = test system: INS1; experiment: beta cell apoptosis inhibitors, cytokine rescue, dose response, luminescence, retest (AID 449756); assay type: functional, cell-based; details: Rattus norvegicus;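 also: cell death triggered by IL-1 beta plus TNF-alpha plus IFN-gamma mixture; protective hits raise ATP signal compared with cytokine alone wells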
[37] = target: Induced myeloid leukemia cell differentiation protein Mcl-1 (Homo sapiens, UniProt Q07820); assay type: functional
[38] = target: 1-acylglycerol-3-phosphate O-acyltransferase ABHD5/Perilipin-5 (Homo sapiens, UniProt Q00G26+Q8WTS1); experiment: Luminescence-based biochemical high throughput dose response assay for inhibitors of the interaction of the lipase co-activator protein, abhydrolase domain containing 5 (ABHD5) with perilipin-5 (MLDP; PLIN5) (2K validation set). [Related pubchem assays (depositor defined):AID493035, AID493241]
[39] = target: Perilipin-1/ABHD5 (Homo sapiens, UniProt O60240+Q8WTS1); experiment: Luminescence-based biochemical high throughput dose response assay for inhibitors of the interaction of the lipase co-activator protein, abhydrolase domain containing 5 (ABHD5) with perilipin-1 (PLIN1) (2K validation set). [Related pubchem assays (depositor defined):AID493027, AID493057]
Perilipin-1/ABHD5, sequence (Q8WTS1 whole entry, the tested form may be a part): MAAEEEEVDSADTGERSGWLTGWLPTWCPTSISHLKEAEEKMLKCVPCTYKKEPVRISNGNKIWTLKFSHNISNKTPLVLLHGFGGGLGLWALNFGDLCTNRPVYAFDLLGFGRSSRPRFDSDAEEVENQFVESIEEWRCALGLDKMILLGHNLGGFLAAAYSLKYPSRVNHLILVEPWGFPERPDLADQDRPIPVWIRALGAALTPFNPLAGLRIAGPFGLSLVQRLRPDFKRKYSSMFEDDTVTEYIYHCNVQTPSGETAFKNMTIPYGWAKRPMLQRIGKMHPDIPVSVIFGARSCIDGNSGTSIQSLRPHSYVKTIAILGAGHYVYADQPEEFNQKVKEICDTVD
Perilipin-1/ABHD5, sequence (O60240 whole entry, the tested form may be a part): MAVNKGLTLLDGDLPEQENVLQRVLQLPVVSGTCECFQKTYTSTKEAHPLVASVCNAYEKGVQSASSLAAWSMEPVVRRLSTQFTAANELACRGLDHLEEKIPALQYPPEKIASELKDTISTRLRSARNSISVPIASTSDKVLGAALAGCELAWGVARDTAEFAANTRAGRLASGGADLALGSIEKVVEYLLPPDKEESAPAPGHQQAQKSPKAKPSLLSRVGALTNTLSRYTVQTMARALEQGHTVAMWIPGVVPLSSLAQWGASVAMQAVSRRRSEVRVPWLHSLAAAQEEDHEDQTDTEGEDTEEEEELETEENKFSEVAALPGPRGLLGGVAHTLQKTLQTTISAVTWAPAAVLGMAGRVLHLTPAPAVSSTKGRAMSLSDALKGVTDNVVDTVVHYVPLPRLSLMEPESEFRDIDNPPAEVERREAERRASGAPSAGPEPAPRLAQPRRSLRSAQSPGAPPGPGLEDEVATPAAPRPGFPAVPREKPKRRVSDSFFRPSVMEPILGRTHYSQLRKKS

T3 sequence (P41145 whole entry): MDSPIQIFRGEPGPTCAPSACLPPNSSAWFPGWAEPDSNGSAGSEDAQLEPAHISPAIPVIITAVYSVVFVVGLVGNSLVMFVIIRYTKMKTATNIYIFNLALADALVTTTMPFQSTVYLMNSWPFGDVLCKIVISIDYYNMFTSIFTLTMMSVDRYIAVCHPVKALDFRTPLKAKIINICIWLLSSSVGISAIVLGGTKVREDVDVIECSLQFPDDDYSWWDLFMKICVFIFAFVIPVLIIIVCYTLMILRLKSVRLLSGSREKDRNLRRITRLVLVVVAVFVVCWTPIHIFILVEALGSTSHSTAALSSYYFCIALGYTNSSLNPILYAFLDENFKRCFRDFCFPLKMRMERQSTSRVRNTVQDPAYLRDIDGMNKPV
Beta-galactosidase, sequence (Q8VNN2 whole entry): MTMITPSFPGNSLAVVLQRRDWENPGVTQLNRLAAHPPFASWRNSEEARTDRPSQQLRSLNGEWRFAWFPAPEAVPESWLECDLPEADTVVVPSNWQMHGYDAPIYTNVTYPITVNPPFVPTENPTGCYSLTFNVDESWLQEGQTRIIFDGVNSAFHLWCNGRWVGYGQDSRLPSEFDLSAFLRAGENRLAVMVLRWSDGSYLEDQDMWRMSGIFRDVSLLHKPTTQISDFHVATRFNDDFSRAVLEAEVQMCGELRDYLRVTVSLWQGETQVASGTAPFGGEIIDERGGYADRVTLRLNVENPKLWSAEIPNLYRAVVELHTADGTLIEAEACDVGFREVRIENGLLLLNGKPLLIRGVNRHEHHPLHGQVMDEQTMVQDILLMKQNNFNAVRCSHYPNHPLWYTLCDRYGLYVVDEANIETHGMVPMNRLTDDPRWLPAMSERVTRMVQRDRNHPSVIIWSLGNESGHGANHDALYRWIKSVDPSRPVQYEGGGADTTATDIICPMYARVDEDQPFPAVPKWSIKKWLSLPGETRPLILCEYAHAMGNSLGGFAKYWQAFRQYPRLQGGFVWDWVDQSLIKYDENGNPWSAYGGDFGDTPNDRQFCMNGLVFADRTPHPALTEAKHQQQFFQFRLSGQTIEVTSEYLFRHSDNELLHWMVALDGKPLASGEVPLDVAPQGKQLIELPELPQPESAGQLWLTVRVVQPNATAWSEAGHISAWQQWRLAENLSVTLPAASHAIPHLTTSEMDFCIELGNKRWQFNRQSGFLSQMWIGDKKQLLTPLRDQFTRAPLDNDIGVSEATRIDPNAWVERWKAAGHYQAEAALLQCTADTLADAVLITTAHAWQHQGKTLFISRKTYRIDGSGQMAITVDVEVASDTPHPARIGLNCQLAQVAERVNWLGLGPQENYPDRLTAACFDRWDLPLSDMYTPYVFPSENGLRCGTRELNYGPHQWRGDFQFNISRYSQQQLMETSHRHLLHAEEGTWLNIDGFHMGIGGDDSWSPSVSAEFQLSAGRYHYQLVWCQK
Protein S100-A4, sequence (P26447 whole entry): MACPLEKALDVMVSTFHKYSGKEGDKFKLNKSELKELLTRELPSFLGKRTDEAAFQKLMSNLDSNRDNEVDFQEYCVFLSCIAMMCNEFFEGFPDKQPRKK
1-acylglycerol-3-phosphate O-acyltransferase ABHD5/Perilipin-5, sequence (Q00G26 whole entry, the tested form may be a part): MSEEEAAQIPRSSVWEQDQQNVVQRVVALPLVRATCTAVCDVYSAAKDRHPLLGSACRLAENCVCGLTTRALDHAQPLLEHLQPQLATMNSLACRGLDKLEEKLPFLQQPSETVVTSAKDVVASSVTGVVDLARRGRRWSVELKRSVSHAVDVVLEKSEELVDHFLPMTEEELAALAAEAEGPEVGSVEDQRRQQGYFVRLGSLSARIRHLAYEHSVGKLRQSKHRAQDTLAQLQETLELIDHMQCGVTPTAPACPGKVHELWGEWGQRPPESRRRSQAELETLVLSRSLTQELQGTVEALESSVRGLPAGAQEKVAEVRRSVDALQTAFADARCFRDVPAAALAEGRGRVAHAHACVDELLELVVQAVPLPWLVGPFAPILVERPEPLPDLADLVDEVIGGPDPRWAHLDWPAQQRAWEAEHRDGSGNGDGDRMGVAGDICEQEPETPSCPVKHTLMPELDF
1-acylglycerol-3-phosphate O-acyltransferase ABHD5/Perilipin-5, sequence (Q8WTS1 whole entry, the tested form may be a part): as the sequence (Q8WTS1 whole entry, the tested form may be a part) above
Induced myeloid leukemia cell differentiation protein Mcl-1, sequence (Q07820 whole entry, the tested form may be a part): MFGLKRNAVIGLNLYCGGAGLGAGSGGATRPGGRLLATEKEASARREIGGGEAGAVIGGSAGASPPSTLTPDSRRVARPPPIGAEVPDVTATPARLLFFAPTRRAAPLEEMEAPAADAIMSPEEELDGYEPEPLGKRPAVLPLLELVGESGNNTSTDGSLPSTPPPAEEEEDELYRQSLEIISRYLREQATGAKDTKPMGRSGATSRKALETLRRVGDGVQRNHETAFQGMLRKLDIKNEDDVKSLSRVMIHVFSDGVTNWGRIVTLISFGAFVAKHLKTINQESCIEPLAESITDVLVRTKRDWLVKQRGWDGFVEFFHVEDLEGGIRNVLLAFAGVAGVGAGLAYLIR
Nucleotide-binding oligomerization domain-containing protein 2, sequence (Q9HC29 whole entry, the tested form may be a part): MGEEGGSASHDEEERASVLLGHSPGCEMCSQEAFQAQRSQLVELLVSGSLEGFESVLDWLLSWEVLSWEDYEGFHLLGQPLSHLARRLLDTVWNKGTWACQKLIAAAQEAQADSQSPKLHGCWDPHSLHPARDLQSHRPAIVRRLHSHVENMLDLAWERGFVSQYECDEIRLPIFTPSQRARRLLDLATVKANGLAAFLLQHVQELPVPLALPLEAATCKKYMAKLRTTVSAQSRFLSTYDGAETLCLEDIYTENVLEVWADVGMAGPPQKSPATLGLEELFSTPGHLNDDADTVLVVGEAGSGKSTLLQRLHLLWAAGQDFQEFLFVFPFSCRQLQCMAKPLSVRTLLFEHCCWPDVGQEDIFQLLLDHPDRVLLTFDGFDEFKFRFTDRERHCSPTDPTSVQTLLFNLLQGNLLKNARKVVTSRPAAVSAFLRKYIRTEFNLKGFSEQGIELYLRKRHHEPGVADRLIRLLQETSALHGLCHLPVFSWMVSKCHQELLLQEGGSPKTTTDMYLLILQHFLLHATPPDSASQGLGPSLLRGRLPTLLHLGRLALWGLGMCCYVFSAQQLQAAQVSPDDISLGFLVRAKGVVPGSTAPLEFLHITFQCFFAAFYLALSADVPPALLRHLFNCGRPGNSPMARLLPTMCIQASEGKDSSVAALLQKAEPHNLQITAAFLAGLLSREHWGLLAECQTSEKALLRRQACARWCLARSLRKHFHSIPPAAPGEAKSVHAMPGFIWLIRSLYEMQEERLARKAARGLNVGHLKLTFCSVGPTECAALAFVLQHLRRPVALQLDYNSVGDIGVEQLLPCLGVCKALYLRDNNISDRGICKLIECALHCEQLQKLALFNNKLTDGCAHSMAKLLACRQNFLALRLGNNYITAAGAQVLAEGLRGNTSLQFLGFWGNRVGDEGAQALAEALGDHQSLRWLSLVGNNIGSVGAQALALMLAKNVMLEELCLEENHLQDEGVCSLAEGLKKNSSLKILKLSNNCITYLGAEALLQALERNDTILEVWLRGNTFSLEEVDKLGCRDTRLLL
G-protein coupled receptor 55, sequence (Q9Y2T6 whole entry): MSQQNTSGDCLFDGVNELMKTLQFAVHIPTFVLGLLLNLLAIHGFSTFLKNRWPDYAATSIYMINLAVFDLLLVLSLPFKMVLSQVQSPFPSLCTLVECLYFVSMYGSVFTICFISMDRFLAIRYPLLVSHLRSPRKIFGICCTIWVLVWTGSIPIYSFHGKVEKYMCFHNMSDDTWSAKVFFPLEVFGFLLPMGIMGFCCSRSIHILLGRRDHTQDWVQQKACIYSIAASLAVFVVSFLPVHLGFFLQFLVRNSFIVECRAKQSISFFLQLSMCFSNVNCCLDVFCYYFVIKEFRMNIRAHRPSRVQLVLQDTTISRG
Nonstructural protein 1, sequence (Q194T2 whole entry): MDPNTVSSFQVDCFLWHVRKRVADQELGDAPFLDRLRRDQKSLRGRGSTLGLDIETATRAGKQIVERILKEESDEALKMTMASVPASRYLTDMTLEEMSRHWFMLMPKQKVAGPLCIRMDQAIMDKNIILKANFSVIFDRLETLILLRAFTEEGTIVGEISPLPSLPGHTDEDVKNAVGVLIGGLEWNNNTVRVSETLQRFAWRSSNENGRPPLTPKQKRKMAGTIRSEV

## CCN(CC)c1ccc(/C=C/c2ccc3ccc(OC)cc3[n+]2CC)cc1
[1]
  EC50: > 160 µM (inconclusive)
[2]
  EC50: 3.64 µM (active)
[3]
  EC50: 0.732 µM (inconclusive)
[4]
  IC50: 1.9 µM (active)
[5]
  EC50: 2.82 µM (active)
[6]
  EC50: < 0.03 µM (active)
[7]
  IC50: 9.34 µM (active)
[8]
  EC50: 6.78 µM (active)
[9]
  IC50: 2.2 µM (active)
[10]
  EC50: < 0.1 µM (active)
[11]
  IC50: > 20 µM (inactive)
[12]
  EC50: 5.54 µM (active)
[13]
  EC50: 0.892 µM (inconclusive)
[14]
  EC50: 2.25 µM (active)
[15]
  EC50: > 32 µM (inactive)
[16]
  IC50: > 80 µM (inactive)
[17]
  IC50: 17.3 µM (active)
[18]
  AC50: 1.12 µM (active)
[19]
  AC50: 17.4 µM (active)
[20]
  EC50: 0.023 µM (active)

## Oc1c(N=Nc2ccccn2)ccc2ccccc12
[21]
  EC50: 2.67 µM (active)
[3]
  EC50: 2.8 µM (active)
[22]
  EC50: > 350 µM (not active)
[23]
  EC50: 9.75 µM (active)
[24]
  EC50: 7.46 µM (active)
[25]
  EC50: > 150 µM (not active)
[5]
  EC50: 2.76 µM (inconclusive)
[26]
  EC50: 6.46 µM (active)
[27]
  IC50: 2.32 µM (active)
[28]
  EC50: 14.5 µM (active)
[13]
  EC50: 2.99 µM (inconclusive)
[29]
  IC50: 13.8 µM (active)
[30]
  pIC50: < 4.49
[14]
  EC50: 3.59 µM (active)
[31]
  EC50: 25.1 µM (active)
[32]
  IC50: > 119 µM (inactive)
[33]
  EC50: 9.82 µM (active)
[34]
  IC50: > 119 µM (inactive)
[35]
  EC50: 2.84 µM (active)
[36]
  AC50: 0.375 µM (active)

## COC(=O)c1cc(-c2ccc(C)o2)nc2ccccc12
[37]
  IC50: 18 µM (active)
[38]
  IC50: 8.7 µM (active)
[39]
  IC50: 8.68 µM (active)
